# Measured values taken from patent publication US20080262082A1, “COMPOSITION CONTAINING S-(-)-TULIPALIN B OR ACETYLATED-S-(-)-TULIPALIN B” (BIO SPECTRUM, INC., priority 2007, published 2008).
# Read-outs that look alike come from different tables or passages of the source.
# How the values were obtained:
# Type in all cases: cell-based
# [1] = tested on: Actiinobacillus ureae KCTC 2674; assay: Agar diffusion antibacterial test (aerobic); conditions: A. ureae
# [2] = tested on: Actiinobacillus ureae KCTC 2674; assay: MIC by broth dilution method; conditions: A. ureae, 37° C., 24 hours
# [3] = tested on: Legionella pneumophila KCCM 41779; conditions: L. pneumophila; broth dilution, 37° C., 24 hours
# [4] = tested on: Salmonella typhimurium KCTC 2514; assay: Agar diffusion antibacterial test (aerobic); conditions: S. typhimurium
# [5] = tested on: Propionibacterium acne ATCC 6919; assay: Agar diffusion antibacterial test (anaerobic); conditions: P. acne
# [6] = tested on: 18 species of pathogenic bacteria (aerobic); assay: Agar diffusion antibacterial test, overall (aerobic); conditions: all kinds of test bacteria (aerobic), agar diffusion
# [7] = tested on: Listeria monocytogenes KCTC 3569; assay: Agar diffusion antibacterial test (aerobic); conditions: L. monocytogenes
# [8] = tested on: Moraxella catarrhalis KCCM 40056; assay: MIC by broth dilution method; conditions: M. catarrhalis, 37° C., 24 hours
# [9] = tested on: Corynebacterium glutamicum KCTC 1445; assay: Agar diffusion antibacterial test (anaerobic); conditions: C. glutamicum
# [10] = tested on: Clostridium perfringens KCCM 12098; conditions: C. perfringens
# [11] = tested on: Bacillus subtilis KCTC 1021; assay: MIC by broth dilution method; conditions: B. subtilis, 37° C., 24 hours
# [12] = tested on: Clostridium perfringens KCCM 12098; conditions: C. perfringens; broth dilution, 37° C., 24 hours
# [13] = tested on: Shigella sonnei KCTC 2518; assay: MIC by broth dilution method; conditions: S. sonnei, 37° C., 24 hours
# [14] = tested on: Propionibacterium granulosum ATCC 25564; assay: MIC by broth dilution method; conditions: P. granulosum, 37° C., 24 hours
# [15] = tested on: Moraxella catarrhalis KCCM 40056; assay: Agar diffusion antibacterial test (aerobic); conditions: M. catarrhalis
# [16] = tested on: Listeria monocytogenes KCTC 3569; assay: MIC by broth dilution method; conditions: L. monocytogenes, 37° C., 24 hours
# [17] = tested on: Vibrio parahaemolyticus KCTC 27; assay: Agar diffusion antibacterial test (aerobic); conditions: V. parahaemolyticus
# [18] = tested on: Aeromonas salmonicida KCTC 12266; assay: Agar diffusion antibacterial test (aerobic); conditions: A. salmonicida
# [19] = tested on: Propionibacterium granulosum ATCC 25564; assay: Agar diffusion antibacterial test (anaerobic); conditions: P. granulosum
# [20] = tested on: Campylobacter jejuni KCTC 5327; assay: Agar diffusion antibacterial test (anaerobic); conditions: C. jejuni
structure (smiles),measurement,setting,value
"C=C1C(=O)OC[C@H]1O [S-(−)-tulipalin B, (4S)-4-hydroxy-3-methylene-oxolan-2-one]",Inhibitory zone diameter,[1]; treatment concentration 0.03%,11 mm
same,Inhibitory zone diameter,[1]; treatment concentration 0.1%,12 mm
same,Inhibitory zone diameter,[1]; treatment concentration 0.3%,17 mm
same,Inhibitory zone diameter,[1]; treatment concentration 1.0%,19 mm
same,MIC,[2],0.03%
same,MIC,[3],0.03%
same,Inhibitory zone diameter,[4]; treatment concentration 0.03%,11 mm
same,Inhibitory zone diameter,[4]; treatment concentration 0.1%,13 mm
same,Inhibitory zone diameter,[4]; treatment concentration 0.3%,17 mm
same,Inhibitory zone diameter,[4]; treatment concentration 1.0%,20 mm
same,Inhibitory zone diameter,[5]; treatment concentration 0.03%,11 mm
same,Inhibitory zone diameter,[5]; treatment concentration 0.1%,13 mm
same,Inhibitory zone diameter,[5]; treatment concentration 0.3%,14 mm
same,Inhibitory zone diameter,[5]; treatment concentration 1.0%,16 mm
same,Antibacterial effects,[6],high antibacterial effects
same,Inhibitory zone diameter,[7]; treatment concentration 0.1%,11 mm
same,Inhibitory zone diameter,[7]; treatment concentration 0.3%,13 mm
same,Inhibitory zone diameter,[7]; treatment concentration 1.0%,16 mm
same,MIC,[8],0.03%
same,Inhibitory zone diameter,[9]; treatment concentration 0.1%,10.5 mm
same,Inhibitory zone diameter,[9]; treatment concentration 0.3%,11 mm
same,Inhibitory zone diameter,[9]; treatment concentration 1.0%,12 mm
same,Inhibitory zone diameter,[10]; treatment concentration 0.1%,11 mm
same,Inhibitory zone diameter,[10]; treatment concentration 0.3%,13 mm
same,Inhibitory zone diameter,[10]; treatment concentration 1.0%,14 mm
same,MIC,[11],0.04%
same,MIC,[12],0.08%
same,MIC,[13],0.03%
same,MIC,[14],0.03%
same,Inhibitory zone diameter,[15]; treatment concentration 0.03%,11 mm
same,Inhibitory zone diameter,[15]; treatment concentration 0.1%,11 mm
same,Inhibitory zone diameter,[15]; treatment concentration 0.3%,15 mm
same,Inhibitory zone diameter,[15]; treatment concentration 1.0%,18 mm
same,MIC,[16],0.10%
same,Inhibitory zone diameter,[17]; treatment concentration 0.01%,11 mm
same,Inhibitory zone diameter,[17]; treatment concentration 0.03%,13 mm
same,Inhibitory zone diameter,[17]; treatment concentration 0.1%,14 mm
same,Inhibitory zone diameter,[17]; treatment concentration 0.3%,18 mm
same,Inhibitory zone diameter,[17]; treatment concentration 1.0%,19 mm
same,Inhibitory zone diameter,[18]; treatment concentration 0.01%,11 mm
same,Inhibitory zone diameter,[18]; treatment concentration 0.03%,12 mm
same,Inhibitory zone diameter,[18]; treatment concentration 0.1%,13 mm
same,Inhibitory zone diameter,[18]; treatment concentration 0.3%,17 mm
same,Inhibitory zone diameter,[18]; treatment concentration 1.0%,19 mm
same,Inhibitory zone diameter,[19]; treatment concentration 0.03%,10.5 mm
same,Inhibitory zone diameter,[19]; treatment concentration 0.1%,13 mm
same,Inhibitory zone diameter,[19]; treatment concentration 0.3%,15 mm
same,Inhibitory zone diameter,[19]; treatment concentration 1.0%,16 mm
same,Inhibitory zone diameter,[20]; treatment concentration 0.01%,11.5 mm
same,Inhibitory zone diameter,[20]; treatment concentration 0.03%,13 mm
same,Inhibitory zone diameter,[20]; treatment concentration 0.1%,15 mm
same,Inhibitory zone diameter,[20]; treatment concentration 0.3%,16 mm
same,Inhibitory zone diameter,[20]; treatment concentration 1.0%,18 mm
